Test results as given in ChEMBL document CHEMBL1201862, “PubChem BioAssay data set” (2004).
The source made the active and inactive calls.

Legend:
[1] = A Cell Based Secondary Assay To Explore Cytotoxicity of Compounds that Sensitize Mycobacterium Tuberculosis to Beta-Lactam Antibiotics.; assay type: functional
[2] = target: T1, G-protein coupled receptor 55 (Homo sapiens, UniProt Q9Y2T6); assay: inhibition of LPI-stimulated GPR55 beta-arrestin translocation – imaging, U2OS, beta-arrestin-GFP, LPI agonist, primary screen (AID 2013); assay type: functional;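 note: antagonist potency measured as reduced agonist-driven arrestin aggregation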
T1 sequence (Q9Y2T6 whole entry): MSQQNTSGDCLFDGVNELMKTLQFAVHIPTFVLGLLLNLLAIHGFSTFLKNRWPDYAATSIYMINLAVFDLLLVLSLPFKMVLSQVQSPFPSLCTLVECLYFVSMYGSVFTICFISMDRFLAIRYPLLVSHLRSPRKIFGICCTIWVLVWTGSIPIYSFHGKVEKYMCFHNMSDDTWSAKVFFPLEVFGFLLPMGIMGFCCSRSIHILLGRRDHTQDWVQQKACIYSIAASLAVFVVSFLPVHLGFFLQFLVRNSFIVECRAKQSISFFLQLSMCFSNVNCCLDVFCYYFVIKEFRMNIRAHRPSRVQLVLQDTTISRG

[3] = Trypanosoma cruzi growth suppression in host cells – NIH3T3 host cells, beta-gal luminescence, confirmation (AID 2044); assay type: functional, cell-based;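 note: intracellular parasites grown in NIH/3T3 mouse fibroblasts as host cells; luminescent beta-galactosidase reporter signal from transgenic T. cruzi replicating inside host cells; inhibitors lower the luminescence signal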
[4] = viability of PTEN-deleted HCT116 cells – cell-based, HCT116 PTEN knockout, dose response (AID 1047); assay type: functional;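 note: HCT116 colon tumor cells with PTEN knocked out; cells exposed to compound for 60 hours before readout; potency for loss of cell viability measured by luminescence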
[5] = NIH3T3 cell viability loss – ATP luminescence, mouse fibroblasts, counter-screen, dose response (AID 2010); assay type: functional, cell-based;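 note: cells exposed to compound for about 90 hours before reading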
[6] = viability of HCT116 lacking mutant beta-catenin – cell-based, human colon tumor, dose response (AID 1045); assay type: functional;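 note: HCT116 colon tumor cells with beta catenin knocked out; cells exposed to compound for 60 hours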
Cannabinoid receptor 1 [7] = target: T2, Cannabinoid receptor 1 (Homo sapiens, UniProt P21554); assay: SAR analysis of antagonists of the Cannabinoid Receptor 1 using an Image-Based Assay - Set 2. [Related pubchem assays (depositor defined):AID2013, AID2026]; assay type: functional
T2 sequence (P21554 whole entry): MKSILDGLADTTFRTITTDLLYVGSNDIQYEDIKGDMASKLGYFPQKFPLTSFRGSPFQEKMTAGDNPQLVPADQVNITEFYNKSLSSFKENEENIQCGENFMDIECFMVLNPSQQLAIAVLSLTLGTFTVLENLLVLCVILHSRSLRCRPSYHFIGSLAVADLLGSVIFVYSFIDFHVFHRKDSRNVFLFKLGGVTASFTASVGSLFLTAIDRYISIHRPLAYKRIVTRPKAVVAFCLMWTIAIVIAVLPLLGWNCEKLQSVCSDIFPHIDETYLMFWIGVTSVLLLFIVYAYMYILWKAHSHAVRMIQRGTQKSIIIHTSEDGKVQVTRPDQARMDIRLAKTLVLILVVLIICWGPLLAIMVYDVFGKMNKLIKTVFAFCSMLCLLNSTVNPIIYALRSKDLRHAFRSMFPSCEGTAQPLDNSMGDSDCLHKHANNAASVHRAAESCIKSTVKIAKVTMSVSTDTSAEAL

[8] = target: T3, G-protein coupled receptor 35 (Homo sapiens, UniProt Q9HC97); assay: SAR analysis of Agonists of the GPR35 Receptor using an Image-Based Assay - Set 2. [Related pubchem assays (depositor defined):AID2013, AID2026]; assay type: functional
T3 sequence (Q9HC97 whole entry): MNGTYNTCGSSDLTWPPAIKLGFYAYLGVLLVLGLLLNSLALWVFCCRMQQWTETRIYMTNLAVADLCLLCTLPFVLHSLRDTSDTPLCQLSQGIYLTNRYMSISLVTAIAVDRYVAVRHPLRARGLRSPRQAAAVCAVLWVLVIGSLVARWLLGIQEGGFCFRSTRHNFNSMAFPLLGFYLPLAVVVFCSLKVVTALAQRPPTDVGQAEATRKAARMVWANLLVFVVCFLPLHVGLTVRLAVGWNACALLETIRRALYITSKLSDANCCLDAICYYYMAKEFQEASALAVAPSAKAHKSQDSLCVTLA

Cannabinoid receptor 2 [9] = target: T4, Cannabinoid receptor 2 (Homo sapiens, UniProt P34972); assay: SAR analysis of antagonists of the Cannabinoid Receptor 2 using an Image-Based Assay. [Related pubchem assays (depositor defined):AID2013, AID2026]; assay type: functional
T4 sequence (P34972 whole entry): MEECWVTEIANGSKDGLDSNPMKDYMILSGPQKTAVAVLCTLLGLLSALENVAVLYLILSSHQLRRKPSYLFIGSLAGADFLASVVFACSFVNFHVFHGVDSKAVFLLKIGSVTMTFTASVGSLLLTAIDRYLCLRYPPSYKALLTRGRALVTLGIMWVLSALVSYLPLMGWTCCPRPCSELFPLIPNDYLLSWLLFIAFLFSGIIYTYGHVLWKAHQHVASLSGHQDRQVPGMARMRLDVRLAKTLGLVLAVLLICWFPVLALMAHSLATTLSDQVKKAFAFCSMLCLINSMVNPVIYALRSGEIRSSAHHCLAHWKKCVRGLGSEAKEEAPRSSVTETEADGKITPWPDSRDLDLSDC

Cannabinoid receptor 1 [10] = target: T2, Cannabinoid receptor 1; assay: SAR analysis of agonists of the Cannabinoid Receptor 1 using an Image-Based Assay - Set 2. [Related pubchem assays (depositor defined):AID2013, AID2026]; assay type: functional
[11] = target: T3, G-protein coupled receptor 35; assay: SAR analysis of Antagonists of the GPR35 Receptor using an Image-Based Assay - Set 3. [Related pubchem assays (depositor defined):AID2013, AID2026]; assay type: functional
[12] = target: T1, G-protein coupled receptor 55; assay: blockade of LPI-induced GPR55 arrestin translocation – imaging, U2OS, beta-arrestin-GFP, LPI agonist, set 2, SAR follow-up (AID 2820); assay type: functional
Cannabinoid receptor 2 [13] = target: T4, Cannabinoid receptor 2; assay: SAR analysis of agonists of the Cannabinoid Receptor 2 using an Image-Based Assay. [Related pubchem assays (depositor defined):AID2013, AID2026]; assay type: functional
Cytochrome P450 2C9 = Cytochrome P450 2C9 (Homo sapiens, UniProt P11712)
Cytochrome P450 2C9, sequence (P11712 whole entry): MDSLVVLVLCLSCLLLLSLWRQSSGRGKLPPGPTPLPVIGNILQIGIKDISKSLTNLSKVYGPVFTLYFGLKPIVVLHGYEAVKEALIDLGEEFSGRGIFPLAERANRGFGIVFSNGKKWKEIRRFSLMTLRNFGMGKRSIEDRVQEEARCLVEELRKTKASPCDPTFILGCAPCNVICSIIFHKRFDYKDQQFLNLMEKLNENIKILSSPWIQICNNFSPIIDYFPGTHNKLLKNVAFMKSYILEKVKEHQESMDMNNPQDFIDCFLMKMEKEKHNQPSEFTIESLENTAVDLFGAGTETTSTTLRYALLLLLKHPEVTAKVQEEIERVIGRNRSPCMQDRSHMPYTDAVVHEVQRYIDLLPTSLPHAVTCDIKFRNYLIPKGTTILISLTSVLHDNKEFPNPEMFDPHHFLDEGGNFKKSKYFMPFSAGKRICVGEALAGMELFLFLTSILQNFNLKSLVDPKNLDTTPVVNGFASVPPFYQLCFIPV

[14] = target: T5, Delta-type opioid receptor (Homo sapiens, UniProt P41143); assay: HTS Image-Based Screen for Antagonists of the DOR Receptor. [Related pubchem assays (depositor defined):AID1777, AID1785, AID1786, AID2133]; assay type: functional
T5 sequence (P41143 whole entry): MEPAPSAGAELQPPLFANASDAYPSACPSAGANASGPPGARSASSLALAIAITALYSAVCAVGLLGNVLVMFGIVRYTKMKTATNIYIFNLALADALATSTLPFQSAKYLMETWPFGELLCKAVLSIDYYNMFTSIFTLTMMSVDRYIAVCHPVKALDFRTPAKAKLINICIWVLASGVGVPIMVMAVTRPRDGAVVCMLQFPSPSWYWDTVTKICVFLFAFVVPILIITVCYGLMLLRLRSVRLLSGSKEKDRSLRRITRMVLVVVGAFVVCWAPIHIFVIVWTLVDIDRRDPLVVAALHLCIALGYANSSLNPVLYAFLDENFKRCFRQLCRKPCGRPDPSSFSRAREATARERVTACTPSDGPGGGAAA

Mu-type opioid receptor = Mu-type opioid receptor (Homo sapiens, UniProt P35372); assay: HTS Image-Based Screen for Agonists of the MOR Receptor. [Related pubchem assays (depositor defined):AID1777, AID1785, AID1786, AID2133]; assay type: functional;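 note: imaging of beta-arrestin GFP recruitment into spots after receptor activation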
Mu-type opioid receptor, sequence (P35372 whole entry): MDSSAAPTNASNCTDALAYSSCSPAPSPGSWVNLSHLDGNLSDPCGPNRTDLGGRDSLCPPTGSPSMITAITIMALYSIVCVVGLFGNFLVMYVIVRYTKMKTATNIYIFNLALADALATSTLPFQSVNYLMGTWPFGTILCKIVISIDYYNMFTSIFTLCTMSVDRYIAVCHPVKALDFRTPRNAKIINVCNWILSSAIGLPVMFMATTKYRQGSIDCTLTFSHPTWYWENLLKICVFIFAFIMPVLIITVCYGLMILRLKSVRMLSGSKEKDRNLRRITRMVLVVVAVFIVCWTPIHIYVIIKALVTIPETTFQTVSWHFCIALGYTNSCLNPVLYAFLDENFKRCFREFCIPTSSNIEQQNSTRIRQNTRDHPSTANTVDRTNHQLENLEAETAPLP

[15] = tested on: Streptococcus sp. 'group A'; assay: Streptococcus pyogenes SK(-)GAS viability under kanamycin – luminescence, BacTiterGlo, confirmation, counter-screen for streptokinase expression inhibitor project, dose response (AID 1900); assay type: functional, organism-based
[16] = target: T5, Delta-type opioid receptor; assay: HTS Image-Based Screen for Agonists of the DOR Receptor. [Related pubchem assays (depositor defined):AID1777, AID1786, AID2133]; assay type: functional
[17] = target: T6, Kappa-type opioid receptor (Homo sapiens, UniProt P41145); assay type: functional
T6 sequence (P41145 whole entry): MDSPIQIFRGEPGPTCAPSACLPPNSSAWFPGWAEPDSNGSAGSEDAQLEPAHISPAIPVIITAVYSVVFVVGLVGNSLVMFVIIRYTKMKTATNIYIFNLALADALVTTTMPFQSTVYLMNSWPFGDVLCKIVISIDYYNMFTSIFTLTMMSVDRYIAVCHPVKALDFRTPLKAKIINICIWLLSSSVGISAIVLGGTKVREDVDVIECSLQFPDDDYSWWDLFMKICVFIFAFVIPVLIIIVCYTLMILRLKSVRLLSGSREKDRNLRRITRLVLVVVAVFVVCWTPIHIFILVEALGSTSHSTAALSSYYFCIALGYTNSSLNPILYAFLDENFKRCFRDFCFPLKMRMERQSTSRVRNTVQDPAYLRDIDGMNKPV

[18] = target: Voltage-gated inwardly rectifying potassium channel KCNH2 (Homo sapiens, UniProt Q12809); assay: concentration-dependent hERG rescue from blockers – cell-based, thallium flux, dose response (AID 2121); assay type: ADME
Voltage-gated inwardly rectifying potassium channel KCNH2, sequence (Q12809 whole entry): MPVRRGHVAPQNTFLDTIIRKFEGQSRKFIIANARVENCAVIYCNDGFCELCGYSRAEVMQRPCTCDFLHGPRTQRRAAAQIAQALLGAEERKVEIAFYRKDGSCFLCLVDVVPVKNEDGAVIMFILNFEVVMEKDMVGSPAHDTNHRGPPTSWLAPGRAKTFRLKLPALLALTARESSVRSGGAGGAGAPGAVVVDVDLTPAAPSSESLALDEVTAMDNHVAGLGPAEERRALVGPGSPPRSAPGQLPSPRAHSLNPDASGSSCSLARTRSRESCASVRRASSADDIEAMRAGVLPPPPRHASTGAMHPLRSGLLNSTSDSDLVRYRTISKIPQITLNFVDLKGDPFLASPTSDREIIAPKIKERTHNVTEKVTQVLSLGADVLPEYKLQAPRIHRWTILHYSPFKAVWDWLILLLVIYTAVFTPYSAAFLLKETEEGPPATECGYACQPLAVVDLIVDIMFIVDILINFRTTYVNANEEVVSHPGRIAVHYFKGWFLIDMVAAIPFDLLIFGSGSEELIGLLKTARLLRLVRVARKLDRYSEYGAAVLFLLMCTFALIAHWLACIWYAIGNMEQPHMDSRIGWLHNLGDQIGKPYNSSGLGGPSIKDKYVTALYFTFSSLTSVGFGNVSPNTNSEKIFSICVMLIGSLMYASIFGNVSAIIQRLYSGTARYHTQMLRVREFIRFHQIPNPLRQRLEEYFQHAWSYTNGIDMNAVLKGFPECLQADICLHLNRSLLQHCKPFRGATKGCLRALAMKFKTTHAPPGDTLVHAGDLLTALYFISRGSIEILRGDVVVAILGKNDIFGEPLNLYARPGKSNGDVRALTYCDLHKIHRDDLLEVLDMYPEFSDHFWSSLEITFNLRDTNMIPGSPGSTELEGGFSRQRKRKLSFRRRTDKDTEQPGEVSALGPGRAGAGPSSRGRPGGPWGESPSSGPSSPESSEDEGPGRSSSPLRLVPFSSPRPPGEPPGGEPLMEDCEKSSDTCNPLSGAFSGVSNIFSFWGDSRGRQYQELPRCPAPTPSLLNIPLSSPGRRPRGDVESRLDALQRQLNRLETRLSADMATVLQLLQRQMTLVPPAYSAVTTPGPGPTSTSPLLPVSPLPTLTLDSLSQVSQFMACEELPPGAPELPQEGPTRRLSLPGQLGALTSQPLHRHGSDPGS

Beta-galactosidase = Beta-galactosidase (Escherichia coli, UniProt Q8VNN2); assay type: functional
[19] = target: T6, Kappa-type opioid receptor; assay type: functional; remark: listed apart in the source
Streptococcus = assay: GAS UMAA2166 growth inhibition – luminescence, BacTiterGlo, counter-screen for streptokinase expression inhibitor project, dose response (AID 1915); assay type: functional, organism-based;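 note: potency for reduction of bacterial viability or growth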
[20] = target: T7, Heat shock factor protein 1 (Mus musculus, UniProt P38532); assay: decrease of HSF1-responsive luciferase luminescence – cell-based, NIH3T3, dose retest, confirmation (AID 2382); assay type: functional;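 note: NIH3T3 fibroblasts with HSF1-driven luciferase reporter stressed by proteasome inhibitor MG132; luminescence from HSF1-driven luciferase expression after 8 hours of MG132 stress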
T7 sequence (P38532 whole entry): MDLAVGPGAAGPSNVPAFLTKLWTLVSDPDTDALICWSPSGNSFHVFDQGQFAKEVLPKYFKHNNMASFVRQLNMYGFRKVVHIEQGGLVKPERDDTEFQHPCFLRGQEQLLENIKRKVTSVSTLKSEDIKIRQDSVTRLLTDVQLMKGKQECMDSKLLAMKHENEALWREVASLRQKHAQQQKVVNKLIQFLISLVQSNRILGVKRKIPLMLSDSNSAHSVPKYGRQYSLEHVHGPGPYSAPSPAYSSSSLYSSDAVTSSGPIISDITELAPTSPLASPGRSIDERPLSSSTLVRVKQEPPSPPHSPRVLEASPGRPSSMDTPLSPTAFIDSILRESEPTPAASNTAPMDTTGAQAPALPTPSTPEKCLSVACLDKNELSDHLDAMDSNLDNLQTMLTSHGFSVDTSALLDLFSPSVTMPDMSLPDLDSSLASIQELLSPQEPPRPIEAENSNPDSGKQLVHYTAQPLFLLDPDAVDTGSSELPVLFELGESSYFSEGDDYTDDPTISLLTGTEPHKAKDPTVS

[21] = Luminescence Cell-Based Dose Retest to Confirm Inhibitors of Cancer Stem Cells. [Related pubchem assays (depositor defined):AID2717, AID2721]; assay type: functional; conditions: Homo sapiens
[22] = toxicity toward cultured mammalian cells – cell-based, plate reader, cherry-pick samples, cytotoxicity control, dose response (AID 504397); assay type: functional
[23] = target: T8, E3 ubiquitin-protein ligase XIAP (Homo sapiens, UniProt P98170); assay: Counter Screen using XIAP-Bir3 for Chemical Antagonists of Bir1/2 domains of IAP-family anti-apoptotic proteins. [Related pubchem assays (depositor defined):AID1018, AID1449, AID1514, AID1638, AID1749, AID1750, AID488957, AID488963]
T8 sequence (P98170 whole entry): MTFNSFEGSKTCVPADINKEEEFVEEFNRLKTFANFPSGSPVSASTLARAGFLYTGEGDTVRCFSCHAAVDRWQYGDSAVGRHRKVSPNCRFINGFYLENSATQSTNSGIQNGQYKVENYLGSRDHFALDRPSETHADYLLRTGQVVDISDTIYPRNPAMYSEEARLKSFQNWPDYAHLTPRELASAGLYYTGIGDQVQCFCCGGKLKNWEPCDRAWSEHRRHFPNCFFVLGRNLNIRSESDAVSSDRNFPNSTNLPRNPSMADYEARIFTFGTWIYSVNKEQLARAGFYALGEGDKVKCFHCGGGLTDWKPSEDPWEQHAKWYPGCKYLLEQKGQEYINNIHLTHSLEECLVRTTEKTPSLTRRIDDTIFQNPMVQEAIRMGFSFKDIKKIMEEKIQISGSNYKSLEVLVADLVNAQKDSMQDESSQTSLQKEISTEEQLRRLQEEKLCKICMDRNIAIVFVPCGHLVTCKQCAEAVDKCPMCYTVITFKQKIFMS

[24] = target: T8, E3 ubiquitin-protein ligase XIAP; assay: small molecules displacing peptide from XIAP – biochemical, IAP family, fluorescence polarization (AID 1018); assay type: functional

CC(C)(C)NS(=O)(=O)c1ccc(NC(=O)C(Sc2ccccc2)c2ccccc2)cc1 (centres undefined)
CC50 [1]: 27.1 µM (active) | IC50 [2]: 678 nM (active) | EC50 [3]: 2.31 µM (active) | EC50 [4]: 14.5 µM (active) | EC50 [5]: > 60 µM (not active) | EC50 [6]: 14.7 µM (active) | IC50 (Cannabinoid receptor 1 [7]): 2.71 µM (active) | EC50 [8]: > 32 µM (inactive) | IC50 (Cannabinoid receptor 2 [9]): > 32 µM (inactive) | EC50 (Cannabinoid receptor 1 [10]): > 32 µM (inactive) | IC50 [11]: > 32 µM (inactive) | IC50 [12]: 978 nM (active) | EC50 (Cannabinoid receptor 2 [13]): > 32 µM (inactive) | AC50 (Cytochrome P450 2C9): 2 µM (inconclusive)

COc1ccc(/C=C2\SC(=N)N(c3nccs3)C2=O)cc1OC
IC50 [14]: > 32 µM (inactive) | EC50 (Mu-type opioid receptor): > 32 µM (inactive) | EC50 [15]: 1.69 µM (active) | EC50 [16]: > 32 µM (inactive) | EC50 [3]: 3.66 µM (active) | IC50 [17]: 7.22 µM (active) | EC50 [18]: 84.7 µM (active) | EC50 (Beta-galactosidase): > 31.5 µM (inactive) | IC50 [19]: > 32 µM | EC50 (Streptococcus): 3.61 µM (active)

c1ccc(CNc2nc(N3CCN(Cc4ccccc4)CC3)nc3ccccc23)cc1
EC50 [20]: > 195 µM (not active) | AC50 [21]: 3.43 µM (active) | AC50 [22]: 66.2 µM (active)

CC(C)C(NC(=O)CN1C(=O)c2ccccc2S1(=O)=O)C(C)C
IC50 [23]: > 100 µM (inactive) | IC50 [24]: > 100 µM (not active)
